Experimental data published in patent US20220193209A1, “COMPOSITIONS AND METHODS FOR REACTIVATING LATENT IMMUNODEFICIENCY VIRUS AND/OR TREATING IMMUNODEFICIENCY VIRUS INFECTION” (The J. David Gladstone institutes, a testamentary trust …, priority 2019, published 2022).

Tests used:
CD4+ T cells = format: cell-based, human
Protocol: CD69 and CD25 expression was measured by flow cytometry gating on CD3^+CD4^+ T cells using FITC-labeled antibodies for CD3 (11-0048-42, eBioscience), APC-conjugated CD25 antibodies (17-0259-42, eBioscience), PerCP-labeled antibodies for CD4 (300528, Biolegend), and CD69-V450 (560740, BD Horizon). Staining was performed for 30 min on ice in FACS buffer (PBS, 2% FBS), and samples were analyzed on a BD Biosciences LSRII flow cytometer. Shown are the percentages of positive cells relative to total CD3^+ CD4^+ T cells or median fluorescence intensity (MFI).
FIG. 6, Panel A, the cell surface CD69 and CD25 T cell activation markers were measured by FACS in CD4^+ T cells upon AS1842856 treatment for 24, 48 and 72 h. 10 μg/mLαCD3 and 1 μg/mL αCD28 was used as control. Data is shown as percentage of positive cells and as mean±SD of two biological replicates. FIG. 6, Panel B, depicts the same as in FIG. 6, Panel A, but measuring FOXO1 target genes (IL7R, KLRG1, CD62L) after 48 h of AS1842856 treatment (n=3). […]. Cells were allowed to rest for 6 days before 72 h reactivation was induced with PHA/IL-2 and 10 μg/mL αCD3 and 1 μg/mLαCD28. Data are mean±SEM of at least 3 individual donors. Data represent average SD of 9-13 independent experiments. […] Cell viability was assessed by Trypan Blue exclusion.

[1] = tested on: latent HIVNL4-3 Luciferase reporter virus in primary CD4+ T cells; assay: Luciferase reporter HIV reactivation in primary CD4+ T cells; format: cell-based, HIV-1; details: 6 days after infection, increasing concentrations
Protocol: For reactivation of latent HIV-1 provirus, cells were counted and collected as pellets by centrifugation at 1500 rpm for 10 min. Cells were then plated in 96-well U-bottom plates at 1×10^6 per 200 μl in the presence of 30 μM Raltegravir (Santa Cruz Biotechnology) and the indicated activator. Cells were harvested 48 h after stimulation, washed one time with PBS, and lysed in 60 μl of Passive Lysis Buffer (Promega). After 15 min of lysis, the luciferase activity in cell extracts was quantified with a Perkin Elmer EnSpire 2300 Multimode plate reader after mixing 20 μl of lysate with 100 μl of substrate (Luciferase Assay System-Promega). Relative light units (RLU) were normalized to protein content determined by Bradford assay (BioRad). Data represent average (±SD) of three technical replicates per donor. Cell viability was measured with CellTiter-Blue Cell Viability Assay (Promega).
HIV reactivation was measured by luciferase activity and cell viability by flow cytometry.

J-Lat cells = assay: Cell viability of J-Lat cells by flow cytometry; format: cell-based
Protocol: FIG. 3, Panel A, depicts results of treatment of a J-Lat cell line 5A8 with increasing concentrations (1-10000 nM) of AS1842856 for 24, 48 and 72 h. HIV-GFP mRNA reactivation was assessed by RT-qPCR and normalized to RPL13A mRNA. Data represent average SD of three independent experiments. p-value relative to the control at each time point. FIG. 3, Panel B, depicts cell viability assessed by flow cytometry at 72 h of the same experiment as in A. Cell viability was measured by gating on both the live population at the forward scatter (FSC) and side scatter (SSC) plot and then the viable cells after staining with the viability dye. FIG. 3, Panel C, depicts results of treatment of J-Lat cell lines A2 and A72 with increasing concentrations of AS1842856 for 24, 48 and 72 h. HIV-GFP reactivation (bars) and cell viability (dots) were analyzed by FACS. HIV-GFP reactivation is reported as a percentage of GFP-expressing cells (% GFP+ cells). Data represent average f SD of at least three independent experiments. FIG. 3, Panel D, depicts the same experiments as in FIG. 3, Panel C, but performed in different J-Lat cell lines 5A8, 6.3, 11.1 and 15.4. Data represent average f SD of at least three independent experiments. 10 ng/mL TNFα was used as control. FIG. 3 Panel E depicts results of treatment of J-Lat cell lines 5A8, 6.3, 11.1 and 15.4 for 72 h with increasing concentrations of both AS1842856 (Y-axis) and TNFα (X-axis) alone or in combination and analyzed by FACS. Calculation of synergy for drug combinations using the Bliss independence model applied to the HIV-GFP reactivation measured as a percentage of GFP-expressing cells (% GFP+ cells).
FIG. 10, Panels A-F depict results of a J-Lat cell line 5A8 treated with different concentrations of inhibitors. FIG. 10, Panel A, depicts results for a J-Lat cell line A58 that was treated with increasing concentrations of A-92 (GCN2 inhibitor) in combination with 1000 nM AS1842856 (72 h) or 10 ng/mL TNFα (24 h). HIV-GFP reactivation was analyzed by FACS and relativized to the control condition. Histogram plots of percent live cells for each drug treatment are shown. FIG. 10, Panel B, depicts the same experiment as in FIG. 10, Panel A, but cells were treated with increasing concentrations of PKR inhibitor (PKRi). Histogram plots representing viability are also shown. Data are represented by mean±SD of three different […]. […] FIG. 10, Panel D, depicts a J-Lat cell line A58 that was treated with increasing concentrations of Ionomycin (0.01, 0.1, 0.5, 1 μM) for 24, 48 and 72 hr. HIV-GFP reactivation and cell viability were analyzed by FACS. FIG. 10, Panel E, depicts a J-Lat cell line 5A8 that was treated for 72 h with increasing concentrations of both Fenretinide (Y-axis) and Ionomycin (X-axis) alone or in combination and analyzed by FACS. HIV-GFP reactivation is reported as a percentage of GFP-expressing cells (% GFP+ cells). FIG. 10, Panel F, depicts a J-Lat cell line 5A8 that was also treated for 72 h with increasing concentrations of both Thapsigargin (Y-axis) and Cyclosporin A (X-axis) alone or in combination and analyzed by FACS. HIV-GFP reactivation is again reported as a percentage of GFP-expressing cells (% GFP+ cells).

Question: With `CCn1cc(C(=O)O)c(=O)c2c(N)c(F)c(NC3CCCCC3)cc21` [AS1842856, 5-amino-7-(cyclohexylamino)-1-ethyl-6-fluoro-4-oxo-1,4-dihydro-quinoline-3-carboxylic acid] as the molecule, how does the “generalized T cell activation (CD69 and CD25 expression)” value (CD4+ T cells) read?
Answer: not observed

Question: What about the “luciferase expression (HIV reactivation)” value [1] of the same molecule?
Answer: reactivated luciferase expression

Question: And the “primary T-cell viability” value (primary CD4+ T cells)?
Answer: No changes

Question: What about the cell viability (J-Lat cells; J-Lat 5A8, 72 h) of the same molecule?
Answer: No major effects

Question: What about the cell viability (J-Lat cells; J-Lat A2 and A72) of the same molecule?
Answer: no effect

Question: And the viability (J-Lat cells; four J-Lat clonal cell lines)?
Answer: unaffected
